Test results: US20250255809A1, “OPHTHALMIC PHARMACEUTICAL COMPOSITIONS OF ROFLUMILAST” (Iolyx Therapeutics, Inc., priority 2021, published 2025)

Assays:
[1] = as reported from the API manufacturer; cited from earlier work
[2] = Impact of dry heat sterilization on particle size of bulk roflumilast API; assay type: physicochemical; details: bulk API dried at 137° C. for 20 hours
Method: The impact of dry heat sterilization on roflumilast was assessed. Bulk API of roflumilast was dried at 137° C. for 20 hours. The particle size of the roflumilast was measured. FIG. 14 provides a particle size distribution plot for the bulk API after dry heat sterilization.

O=C(Nc1c(Cl)cncc1Cl)c1ccc(OC(F)F)c(OCC2CC2)c1 [Roflumilast, N-(3,5-dichloropyrid-4-yl)-3-cyclopropylmethoxy-4-difluoromethoxybenzamide]
D90 of the API [1]: approximately 10 μm | impact of dry heat sterilization on particle size distribution [2]: does not significantly impact the particle size distribution
